The values below come from patent publication US20250222005A1, “METHYLENE BLUE CONTAINING COMPOUNDS FOR THE TREATMENT OF METHAEMOGLOBINAEMIA” (Wis Ta Laboratories Ltd., priority 2022, published 2025).

In data set [1] the test system is patients with mild hypoxaemia. The data set is described as follows: Peripheral oxygen saturation (SpO2) by pulse oximetry in AD trial patients with baseline SpO2 below 94% receiving oral LMTM. It counts as in vivo, human. To be noted: for Oxygen saturation, mean %: Baseline (1 hr) 92.167; for Difference in oxygen saturation with respect to baseline: pooled doses; for Oxygen saturation, mean %, post dose: 4 hours post-dose; for Change in mean SpO2 from baseline: four hours. How it is done:
(§1) Methods: Eighteen AD trial participants randomised to unit 4/75/100/125 mg doses of LMTM had SPO2 levels below 94% at baseline. Patients were routinely monitored by pulse oximetry after 4 hrs, and after 2 and 6 weeks of twice daily dosing. Computational chemistry was used to understand LMT-heme binding. The study design and results from two Phase 3, double-blind, controlled, randomised, studies of LMTM as a potential treatment for AD were described elsewhere (see “Gauthier, S., et al. “Efficacy and safety of tau-aggregation inhibitor therapy in patients with mild or moderate Alzheimer's disease: a randomised, controlled, double-blind, parallel-arm, phase 3 trial.” Lancet 2016; 388:2873-2884.” and “Wilcock, G K, et al. “Potential of low dose leuco-methylthioninium bis(hydromethanesulphonate) (LMTM) monotherapy for treatment of mild Alzheimer's disease: cohort analysis as modified primary outcome in a Phase Ill clinical trial.” Journal of Alzheimer's Disease 2017; 61:435-457.). In summary, 890 mild/moderate AD patients were randomly assigned (3:3:4) to 150 mg/day, 250 mg/day or 8 mg/day (intended as a control) for 15-months (clinicaltrials.gov NCT01689246). Similarly, 800 patients with mild AD were randomly assigned to 200 mg/day or 8 mg/day LMTM for 18-months (clinicaltrials.gov NCT01689233). In both trials, MetHb and SpO2 levels were measured by pulse oximetery (Massimo Corporation rad 57) at screening, baseline (within 1 hour prior to dosing), post-dose during the 4-hour observation, and subsequent clinic visits at 2 and 6 weeks. Statistical analyses were performed using R-version 3.5.1, employing paired samples t-tests to compare mean SpO2 and metHb levels.

A further data set concerns methaemoglobin. Description: Methaemoglobin (metHb) levels by pulse oximetry in AD trial patients receiving oral LMTM. The data set is classed as in vivo, human. The conditions noted are these: for Methaemoglobin, mean % ± SE: Table 5B, all patients; for Methaemoglobin, mean %: Table 5A, patients with SpO2 <94% at baseline; for Methaemoglobin, mean %, post dose: 4 hours post-dose, baseline SpO2 <94%. How it is done:
as §1

In data set [2] the test system is oxygen-haemoglobin dissociation curve. Description: Estimation of effect of LMT treatment on oxygen-haemoglobin dissociation curve (SpO2 to PaO2 conversion table). The arrangement: species or system human. To be noted: patients with mild hypoxaemia treated with LMTM; SpO2 plotted at baseline-implied PaO2.
Another data set addresses heme iron of haemoglobin (Homo sapiens, UniProt P68871+P69905). To be noted: from crystal field theory (Jorgensen); cited from earlier work.

Sequence of heme iron of haemoglobin (P69905 2-142 limits assumed): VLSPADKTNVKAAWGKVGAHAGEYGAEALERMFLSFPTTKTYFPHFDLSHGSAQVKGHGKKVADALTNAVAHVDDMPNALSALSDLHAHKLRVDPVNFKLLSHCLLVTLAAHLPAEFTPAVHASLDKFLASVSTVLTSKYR
Sequence of heme iron of haemoglobin (P68871 2-147 limits assumed): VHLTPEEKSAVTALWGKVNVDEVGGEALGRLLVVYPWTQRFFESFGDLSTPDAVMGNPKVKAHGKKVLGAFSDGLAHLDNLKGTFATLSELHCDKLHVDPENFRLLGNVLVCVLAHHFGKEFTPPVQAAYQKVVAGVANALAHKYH

For `CN(C)c1ccc2c(c1)Sc1cc(N(C)C)ccc1N2` [LMTM, leuco-methylthioninium bis(hydromethanesulfonate)], the “Enhancement of oxygen saturation” value in data set [1] (patients with chronic hypoxaemia, single doses 4-125 mg and 6 weeks twice daily) is given as “about 3%”. Further, the “Oxygen saturation, mean %” value in data set [1] (pooled data all doses (8 mg/day and 150-250 mg/day), Week 2) amounted to 95.400%; in data set [1] (pooled data all doses (8 mg/day and 150-250 mg/day), Week 6), 95.571%; in data set [1] (pooled data all doses, Baseline (4 hr)) it was 95.333%. The “Difference in oxygen saturation with respect to baseline” value in data set [1] (week 2, p=0.0034) is “+3.17%”; in data set [1] (week 6, p=0.0005), “+3.23%”. Further, the “Oxygen saturation, mean %, post dose” value is reported as 95.43% in data set [1] (single 4 mg dose, patients with baseline SpO2 <94%, pre-dose 91.71) and 95.27% in data set [1] (single high dose (75/100/125 mg indicated as 100 mg), baseline SpO2 <94%, pre-dose 92.45). The “Change in mean SpO2 from baseline” value in data set [1] (single 4 mg dose, p=0.0205) is given as “+3.72%”; in data set [1] (single high dose (75, 100 or 125 mg), p=0.0045), “+2.82%”. In addition, the “Methaemoglobin, mean % ± SE” value is 0.732 ± 0.017% in the data set on methaemoglobin (8 mg (per day), 4 hr, baseline 0.709 ± 0.017, p 0.09732); 0.733 ± 0.018% in the data set on methaemoglobin (8 mg (per day), Week 2, baseline 0.709 ± 0.017, p 0.1326); 0.770 ± 0.019% in the data set on methaemoglobin (8 mg (per day), Week 6, baseline 0.709 ± 0.017, p 0.0006916); 0.7811 ± 0.029% in the data set on methaemoglobin (150 mg (per day), 4 hr, baseline 0.721 ± 0.029, p 0.02212); 0.831 ± 0.032% in the data set on methaemoglobin (150 mg (per day), Week 2, baseline 0.721 ± 0.029, p <0.0001); 0.889 ± 0.034% with methaemoglobin (150 mg (per day), Week 6, baseline 0.721 ± 0.029, p <0.0001). Further, the “Methaemoglobin, mean % ± SE” value in the data set with methaemoglobin (200 mg (per day), 4 hr, baseline 0.702 ± 0.025, p 0.01967) was determined as 0.760 ± 0.023%; in the data set with methaemoglobin (200 mg (per day), Week 2, baseline 0.702 ± 0.025, p <0.0001), 0.849 ± 0.027%; in the data set with methaemoglobin (200 mg (per day), Week 6, baseline 0.702 ± 0.025, p <0.0001), 0.873 ± 0.030%; in the data set with methaemoglobin (250 mg (per day), 4 hr, baseline 0.696 ± 0.028, p 0.005868) it was 0.758 ± 0.028%; with methaemoglobin (250 mg (per day), Week 2, baseline 0.696 ± 0.028, p <0.0001), 0.837 ± 0.034%; in the data set with methaemoglobin (250 mg (per day), Week 6, baseline 0.696 ± 0.028, p <0.0001), 0.851 ± 0.033%. Also, in the data set on methaemoglobin (both treatment groups (4 mg and high single doses), patients with baseline SpO2 <94%), the “Difference in metHb levels between baseline and 4-hours post-dose” value is given as “no consistent difference”. Besides, the “Effect on metHb levels over 6 weeks” value in the data set with methaemoglobin (higher doses (150, 200 and 250 mg/day), baseline SpO2 <94% subgroup, not statistically significant) is recorded as “systematically increased”. For the same molecule, in data set [2], the “Implied effect of treatment on the oxygen-haemoglobin dissociation curve” value was “implied left-shift”.

In the case of `CN(C)c1ccc2c(c1)Sc1cc(N(C)C)ccc1N2` [LMT, hydromethylthionine], the “Methaemoglobin, mean %” value came out at 0.733% in the data set on methaemoglobin (LMT dose 4 mg, 4 hr, baseline 0.709); 0.732% in the data set with methaemoglobin (LMT dose 4 mg, Week 2, baseline 0.709); 0.769% in the data set on methaemoglobin (LMT dose 4 mg, Week 6, baseline 0.709); 0.781% in the data set with methaemoglobin (LMT dose 150 mg, 4 hr, baseline 0.721); 0.835% in the data set on methaemoglobin (LMT dose 150 mg, Week 2, baseline 0.721); 0.888% with methaemoglobin (LMT dose 150 mg, Week 6, baseline 0.721). Besides, the “Methaemoglobin, mean %” value in the data set with methaemoglobin (LMT dose 200 mg, 4 hr, baseline 0.702) turned out to be 0.760%; in the data set with methaemoglobin (LMT dose 200 mg, Week 2, baseline 0.702) it was 0.849%; with methaemoglobin (LMT dose 200 mg, Week 6, baseline 0.702) it was 0.873%; with methaemoglobin (LMT dose 250 mg, 4 hr, baseline 0.696), 0.758%; with methaemoglobin (LMT dose 250 mg, Week 2, baseline 0.696), 0.845%; with methaemoglobin (LMT dose 250 mg, Week 6, baseline 0.696) it was 0.858%. Besides, the “Methaemoglobin, mean %, post dose” value in the data set on methaemoglobin (single 4 mg dose, pre-dose 0.70) is 0.87%; in the data set on methaemoglobin (single high dose (indicated as 100 mg), pre-dose 0.90), 0.65%. At heme iron of haemoglobin, the “Estimated field factor of the LMT-heme interaction” value was 1.2-1.5.
